Patent US20230357233A1, “HETEROARYL COMPOUNDS, PREPARATION METHODS AND USES THEREOF” (INVENTISBIO CO., LTD., priority 2020, published 2023)

How the values were obtained:
[1] = molecular target: recombinant human KRAS^G12D protein (Homo sapiens, UniProt P01116, G12D); assay: Temperature-dependent Fluorescence (TdF) KRAS^G12D protein binding assay; details: 6 μM KRAS^G12D Protein, 10 μM compound, Sypro Orange; Kd calculated from fluorescent shift
Protocol: The TdF assay was conducted in the 96-well-based real-time fluorescence plate reader (ABI 7500 or Roche LightCycler 480). Fluorescent dye Sypro Orange (Sigma) was used to monitor the protein folding-unfolding transition. Protein-compound binding was gauged by the shift in the unfolding transition temperature (ΔTm) acquired with and without compound. […] The sample plate was heated from 30° C. to 95° C. with a thermal ramping rate of […], taking a fluorescence reading every 0.4° C. using a CY3 channel matching the excitation and emission wavelengths of Sypro Orange (λ ex 470 nm; λ em 570 nm). Binding affinity (Kd value) was calculated based on the degree of fluorescent shift of the protein with and without compound.

Ba/F3_KRAS^G12D cells = Ba/F3_KRAS^G12D cells (Homo sapiens, UniProt P01116, G12D, cells depend on it); assay: Ba/F3 KRAS^G12D cell proliferation assay (cell-titer Glo); format: cell-based; details: cell growth inhibition, treated with the compounds for 3 days, read-out: BaF3_KRAS^G12D IC50
Chain of Ba/F3_KRAS^G12D cells (P01116 whole entry G12D): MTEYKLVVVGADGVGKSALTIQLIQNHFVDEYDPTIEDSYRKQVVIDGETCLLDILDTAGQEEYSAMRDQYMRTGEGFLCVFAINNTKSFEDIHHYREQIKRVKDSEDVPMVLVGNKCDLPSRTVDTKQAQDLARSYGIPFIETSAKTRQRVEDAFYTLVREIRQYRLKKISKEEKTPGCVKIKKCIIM

Chain of recombinant human KRAS^G12D protein (P01116 1-188 isoform P01116-2 G12D): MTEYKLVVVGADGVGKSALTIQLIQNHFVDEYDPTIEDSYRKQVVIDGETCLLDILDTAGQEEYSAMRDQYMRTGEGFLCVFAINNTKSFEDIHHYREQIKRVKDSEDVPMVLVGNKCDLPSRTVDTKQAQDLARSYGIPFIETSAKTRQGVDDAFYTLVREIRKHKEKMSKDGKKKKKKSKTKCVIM

| SMILES | Kd [1] | GI50 (Ba/F3_KRAS^G12D cells) |
| --- | --- | --- |
| N#Cc1cccc2cc(O)cc(-c3ncc4c(N5CC6CCC(C5)N6)nc(OCC56CCCN5CCC6)nc4c3F)c12 [Compound 47] | ≤ 0.5 µM | > 5 µM |
| Clc1cccc2cccc(-c3ncc4c(N5CCNCC5)nc(OCC56CCCN5CCC6)cc4n3)c12 [Compound 48] | > 5 µM | 0.5 to 5 µM |
| CN(C)CCOc1cc2nc(-c3ccccc3F)c(F)cc2c(N2C3CCC2CNC3)n1 [Compound 49] | > 5 µM | 0.5 to 5 µM |
| CN(C)C1CN(c2nc(-c3cccc4cccc(Cl)c34)c(F)c3nc(N4CCNCC4)ccc23)C1 [Compound 50] | > 5 µM | 0.5 to 5 µM |
| Oc1cc(-c2ncc3c(N4CC5CCC(C4)N5)nc(OCC45CCCN4CCC5)cc3n2)c2c(Cl)cccc2c1 [Compound 51] | > 5 µM | > 5 µM |
| Clc1cccc2cccc(-c3ncc4c(N5C6CCC5CNC6)nc(OCC56CCCN5CCC6)cc4n3)c12 [Compound 52] | > 5 µM | 0.5 to 5 µM |
| CN1CCC[C@@H]1COc1nc(-c2cccc3cccc(Cl)c23)c(F)c2nc(N3CCNCC3)ccc12 [Compound 53] | > 5 µM | < 0.5 µM |
| CN1CCC[C@@H]1COc1nc(-c2cccc3ccccc23)c(F)c2nc(N3CCNCC3)ccc12 [Compound 54] | > 5 µM | 0.5 to 5 µM |
| Oc1cc(-c2ncc3c(C4CCNCC4)nc(OCC45CCCN4CCC5)nc3c2F)c2c(Cl)cccc2c1 [Compound 55] | > 5 µM | > 5 µM |
| CCN1CCC(c2nc(OCC34CCCN3CCC4)nc3c(F)c(-c4cc(O)cc5cccc(Cl)c45)ncc23)CC1 [Compound 56] | > 5 µM | 0.5 to 5 µM |
| Oc1cc(-c2nc(OCC34CCCN3CCC4)c3ccc(N4CCNCC4)nc3c2F)c2c(Cl)cccc2c1 [Compound 57] | > 5 µM | > 5 µM |
| Cc1cccc2cc(O)cc(-c3ncc4c(N5CC6CCC(C5)N6)nc(OC[C@@]56CCCN5C[C@H](F)C6)c(Cl)c4n3)c12 [Compound 58] | 0.5 to 5 µM | 0.5 to 5 µM |
| Oc1cc(-c2ncc3c(N4CC5CCC(C4)N5)nc(OCC45CCCN4CCC5)cc3n2)c2c(Cl)cccc2c1Cl [Compound 59] | > 5 µM | > 5 µM |
| N#Cc1cc2c(N3CC4CCC(C3)N4)nc(OC[C@@]34CCCN3C[C@H](F)C4)nc2nc1-c1cc(O)cc2ccccc12 [Compound 60] | > 5 µM | > 5 µM |
| CCc1cccc2cc(O)cc(-c3ncc4c(N5CC6CCC(C5)N6)nc(OC[C@@]56CCCN5C[C@H](F)C6)c(Cl)c4n3)c12 [Compound 61] | ≤ 0.5 µM | 0.5 to 5 µM |
| Oc1cc(-c2ncc3c(N4CC5CCC(C4)N5)nc(OC[C@@]45CCCN4C[C@H](F)C5)cc3n2)c2ccccc2c1 [Compound 62] | > 5 µM | 0.5 to 5 µM |
| Oc1cc(-c2ncc3c(N4CC5CCC(C4)N5)nc(OC[C@@]45CCCN4C[C@H](F)C5)c(Cl)c3n2)c2ccccc2c1 [Compound 63] | > 5 µM | 0.5 to 5 µM |
| CN1CCC[C@H]1Cn1c(=O)nc(N2CCN[C@@H](CC#N)C2)c2cnc(-c3cc(O)cc4cccc(Cl)c34)c(F)c21 [Compound 64] | > 5 µM | > 5 µM |
| Oc1cc(-c2ncc3c(N4CC5CCC(C4)N5)nc(OCC45CCCN4CCC5)c(Cl)c3n2)c2c(Cl)cccc2c1 [Compound 65] | 0.5 to 5 µM | > 5 µM |
| c1ccc2c(-c3ncc4c(N5CC6CCC(C5)N6)cc(OCC56CCCN5CCC6)nc4n3)cccc2c1 [Compound 66] | > 5 µM | 0.5 to 5 µM |
| Fc1c(-c2cccc3cccc(Cl)c23)ncc2c(N3CCNCC3)cc(OCC34CCCN3CCC4)nc12 [Compound 67] | > 5 µM | 0.5 to 5 µM |
| Nc1nc2c(-c3ncc4c(N5CC6CCC(C5)N6)nc(OC[C@@]56CCCN5C[C@H](F)C6)nc4c3F)ccc(F)c2s1 [Compound 68] | ≤ 0.5 µM | > 5 µM |
| Fc1c(-c2cccc3cccc(Cl)c23)ncc2c(OCC34CCCN3CCC4)cc(N3CCNCC3)nc12 [Compound 69] | > 5 µM | 0.5 to 5 µM |
| Oc1cc(-c2ncc3c(N4C5CCC4CNC5)nc(OC[C@@]45CCCN4C[C@H](F)C5)nc3c2F)c2c(Cl)cccc2c1 [Compound 70] | ≤ 0.5 µM | < 0.5 µM |
| Oc1cc(-c2ncc3c(N4CC5CCC(C4)N5)cc(OCC45CCCN4CCC5)nc3c2F)c2c(Cl)cccc2c1 [Compound 71] | 0.5 to 5 µM | > 5 µM |
| Oc1cc(-c2ncc3c(N4CCNCC4)nc(OC[C@@]45CCCN4C[C@H](F)C5)nc3c2F)c2c(Cl)cccc2c1 [Compound 72] | ≤ 0.5 µM | 0.5 to 5 µM |
| CN1CCC[C@H]1COc1nc(N2CCNCC2)c2cnc(-c3ccc(F)c4sc(N)nc34)c(F)c2n1 [Compound 73] | ≤ 0.5 µM | > 5 µM |

| SMILES | Kd [1] | GI50 (Ba/F3_KRAS^G12D cells) |
| --- | --- | --- |
| CC(=O)N1CCN(c2nc(OC[C@@]34CCCN3C[C@H](F)C4)nc3c(F)c(-c4cc(O)cc5cccc(Cl)c45)ncc23)CC1 [Compound 74] | ≤ 0.5 µM | > 5 µM |
| Oc1cc(-c2ncc3c(N4CC5CCC(C4)N5)nc(OC[C@@]45CCCN4C[C@H](F)C5)c(Cl)c3n2)c2c(Cl)c(F)ccc2c1 [Compound 75] | ≤ 0.5 µM | > 5 µM |
| Fc1ccc2cccc(-c3ncc4c(N5CC6CCC(C5)N6)nc(OC[C@@]56CCCN5C[C@H](F)C6)nc4c3F)c2c1Cl [Compound 76] | ≤ 0.5 µM | < 0.5 µM |
| NC(=O)N1CCN(c2nc(OC[C@@]34CCCN3C[C@H](F)C4)nc3c(F)c(-c4cc(O)cc5cccc(Cl)c45)ncc23)CC1 [Compound 77] | > 5 µM | > 5 µM |
| Oc1cc(-c2ncc3c(N4CC5CCC(C4)N5)cc(OC[C@@]45CCCN4C[C@H](F)C5)nc3c2F)c2c(Cl)cccc2c1 [Compound 78] | ≤ 0.5 µM | 0.5 to 5 µM |
| O=C(C(O)O)N1CCN(c2nc(OC[C@@]34CCCN3C[C@H](F)C4)nc3c(F)c(-c4cc(O)cc5cccc(Cl)c45)ncc23)CC1 [Compound 79] | > 5 µM | > 5 µM |
| Oc1cc(-c2ncc3c(N4CC5CCC(C4)N5)cc(OC[C@@]45CCCN4C[C@H](F)C5)nc3c2F)c2ccccc2c1 [Compound 80] | 0.5 to 5 µM | 0.5 to 5 µM |
| Cc1nc(-c2cc(O)cc3ccccc23)c(F)c2nc(OC[C@@]34CCCN3C[C@H](F)C4)nc(N3CC4CCC(C3)N4)c12 [Compound 81] | ≤ 0.5 µM | < 0.5 µM |
| Clc1cccc2cccc(-c3cc4nc(N5CCNCC5)ccc4c(OCC45CCCN4CCC5)n3)c12 [Compound 82] | > 5 µM | < 0.5 µM |
| Clc1cccc2cccc(-c3nc(OCC45CCCN4CCC5)c4ccc(N5CCNCC5)nc4c3Br)c12 [Compound 83] | > 5 µM | 0.5 to 5 µM |
| Oc1cc(-c2cc3nc(OC[C@@]45CCCN4C[C@H](F)C5)nc(N4CC5CCC(C4)N5)c3nn2)c2ccccc2c1 [Compound 84] | 0.5 to 5 µM | 0.5 to 5 µM |
| CCc1cccc2cc(O)cc(-c3nc(C)c4c(N5CC6CCC(C5)N6)nc(OC[C@@]56CCCN5C[C@H](F)C6)nc4c3F)c12 [Compound 85] | ≤ 0.5 µM | < 0.5 µM |
| COc1cc(-c2cc3nc(OC[C@@H]4CCCN4C)nc(N4CC5CCC(C4)N5)c3nc2OC)c2ccccc2c1 [Compound 86] | > 5 µM | 0.5 to 5 µM |
| Cc1nc(-c2ccc(F)c3sc(N)nc23)c(F)c2nc(OC[C@@]34CCCN3C[C@H](F)C4)nc(N3CC4CCC(C3)N4)c12 [Compound 87] | 0.5 to 5 µM | > 5 µM |
| CCc1cccc2cc(O)cc(-c3cc4c(cn3)c(N3CC5CCC(C3)N5)nc(=O)n4C[C@@H]3CCCN3C)c12 [Compound 88] | > 5 µM | > 5 µM |
| Cc1nc(-c2cc(O)cc3cccc(Cl)c23)c(F)c2nc(OC[C@@]34CCCN3C[C@H](F)C4)nc(N3CC4CCC(C3)N4)c12 [Compound 89] | ≤ 0.5 µM | < 0.5 µM |
| Cc1nc(-c2cc(O)cc3cccc(Cl)c23)c(F)c2nc(OC[C@@]34CCCN3C[C@H](F)C4)nc(N3CC4CCC(C3)N4C)c12 [Compound 90] | 0.5 to 5 µM | 0.5 to 5 µM |
| COc1nc2c(N3CC4CCC(C3)N4)nc(OC[C@@H]3CCCN3C)nc2cc1-c1cc(O)cc2ccccc12 [Compound 91] | 0.5 to 5 µM | 0.5 to 5 µM |
| CN1CCC[C@H]1COc1nc(N2CC3CCC(C2)N3)c2[nH]c(=O)c(-c3cc(O)cc4ccccc34)cc2n1 [Compound 92] | 0.5 to 5 µM | > 5 µM |
| Cc1cccc2cc(O)cc(-c3nc(C)c4c(N5CC6CCC(C5)N6)nc(OC[C@@]56CCCN5C[C@H](F)C6)nc4c3F)c12 [Compound 93] | ≤ 0.5 µM | < 0.5 µM |
| Oc1cc(-c2cc3nc(OC[C@@]45CCCN4C[C@H](F)C5)nc(N4CC5CCC(C4)N5)c3nn2)c2c(Cl)cccc2c1 [Compound 94] | ≤ 0.5 µM | 0.5 to 5 µM |
| Oc1cc(-c2nc(Cl)c3c(N4CC5CCC(C4)N5)nc(OC[C@@]45CCCN4C[C@H](F)C5)nc3c2F)c2ccccc2c1 [Compound 95] | ≤ 0.5 µM | < 0.5 µM |
| CC1(O)CN2CCC[C@@]2(COc2nc(N3CC4CCC(C3)N4)c3cnc(-c4cc(O)cc5cccc(Cl)c45)c(F)c3n2)C1 (stereo partly shown) [Compound 96] | ≤ 0.5 µM | > 5 µM |
| Oc1cc(-c2ncc3c(N4CC5(CCCN5)C4)nc(OC[C@@]45CCCN4C[C@H](F)C5)nc3c2F)c2c(Cl)cccc2c1 [Compound 97] | > 5 µM | > 5 µM |
| N#Cc1c(-c2cccc3cccc(Cl)c23)nc(OCC23CCCN2CCC3)c2ccc(N3CCNCC3)nc12 [Compound 98] | > 5 µM | 0.5 to 5 µM |
| Cc1nc(-c2ccc(F)c3nc(N)sc23)c(F)c2nc(OC[C@@]34CCCN3C[C@H](F)C4)nc(N3CC4CCC(C3)N4)c12 [Compound 99] | > 5 µM | 0.5 to 5 µM |
